# “Also recorded” adds a separate entry of the source. Like-named read-outs stand apart in the source and are kept apart here.
# How the values were obtained:
# FKBP-12 = FKBP-12 (Homo sapiens, UniProt P62942); details: cited from earlier work
# calcineurin [1] = details: cited from earlier work
# [2] = system: HEK293 cells stably expressing AC; assay: cAMP production in HEK293 cell lines stably expressing AC; format: cell-based, human
# Protocol: In particular cell lines derived from the human embryonic kidney cell line 293 (HEK293) have been generated and stably express AC. Briefly, the cells were transfected with pcDNA3 containing the full length AC DNA (clone JP 173—see Example 3) and cells were selected on the basis of resistance to G418 antibiotic (0.8 mg/ml) for 4 weeks. Individual clones of resistant cells were expanded and tested for cAMP production in response to CRF and the effects of immunosuppressants were also examined.
# HEK293 cells = assay: CRF-induced and unstimulated cAMP in HEK293 cells without AC (wild type, sham or pcDNA3 vector); format: cell-based, human; details: FK506 2 μmol/l, L-685,818 100 μmol/l
# Protocol: Both expression plasmids (10 μg) were transfected into SV40-transformed monkey embryonic kidney (COS-7) cells grown in DMEM and 10% fetal bovine serum to 70% confluency in 75 cm^2 flasks following the double DEAE-dextran transfection protocol (Ishikawa et al, (1992) Nucl. Acids Res. 20:4367), while only AC cDNA was transfected into adenovirus-transformed human embryonic kidney (HEK293) cells as these express endogenous receptors for CRF (F. A. Antoni, unpublished data). In control transfections pcDNA3 vector DNA replaced the AC expression construct. […]
# AtT20 cells [3] = assay: CRF-induced cAMP accumulation in AtT20 cells; format: cell-based, mouse
# Protocol: Experiments for cAMP were all carried out in Hanks balanced salt solution containing 2 mM CaCl2 and 1 mM MgSO4 buffered with 25 mM HEPES pH 7.4 and supplemented with 0.25% (w/v) of bovine serum albumin. The cells were preincubated in serum free medium for 1 hour, after which blockers of phosphosdiesterase (isobutylmethylxanthine 0.5 mM (IBMX) and/or rolipram 0.1 mM) along with various other treatments were applied for 30 minutes at 37° C. Subsequently the cells were cooled to 22° C. for 5 minutes in a water bath and agonists were added for 10 minutes. The reaction was stopped by the addition of 0.2 mol/l HCl to achieve a final concentration of 0.1 mol/l (Brooker et al, (1979) Adv. in Cyclic Nucl. Res. Vol. 10, G. Brooker, P. Greengard and G. A. Robinson, Raven Press, New York, 2-34).
# In some experiments cells were preincubated for 30 minutes in medium containing 2 mmol/l EGTA and no added Ca^2+, supplemented with 5 μmol/l A23187 and 2.5 μmol/l nifedipine in order to deplete rapidly mobilized cellular stores of Ca^2+. […] The rationale for this pretreatment is that calcineurin reportedly influences L-channel activity (Lai et al, (1993) J. Neurochem. 61:1333-1339; and Armstrong et al, (1987) Proc. Natl. Acad. Sci. U.S.A. 84:2518-2522), whereas the treatment regimen used here would make Ca^2+ entry independent of this regulation.
# These compounds were made up in ethanol at 10^−3 mol/l and diluted with the incubation medium to the desired final concentrations. In some cases cells were preincubated with L685,818 the structural analogue of FK506 that binds to FKBP-12 and inhibits prolyl-isomerase activity but is devoid of immunosuppressant activity (Dumont et al, (1992) J. Exp. Med. 176:751-760) for 10 minutes before the addition of FK506 for 30 minutes at 37° C.
# [4] = system: HEK293 cells overexpressing human AC9; assay: Ca2+/calcineurin inhibition of cAMP production in HEK293 cells overexpressing human AC9; format: cell-based
# Protocol: The complete coding sequence of human AC9 was cloned into the expression vector pcDNA3. This constuct and pcDNA3 (10 μg) were each linearised by PvuI digestion prior to electroporation into HEK293 cells. Stably transfected clones were selected for resistance to G418 (Gibco) at […] in Dulbecco's modified Eagle's medium (DMEM) supplemented with 10% foetal calf serum. A total of 12 clones were expanded and over-expression of human AC9 confirmed in 9 cell lines by immunoblotting using antisera raised against a pentadecapeptide derived from the N-terminus of mouse AC9 (Paterson et al, (1995) Biochem. Biophys. Res. Commun. 214:1000-8). […] Analysis of clone 7 is reported here.
# HEK-293 cells display complex intracellular Ca2+ handling mechanisms that may be controlled by cAMP and calcineurin (Lin et al, (1995) Mol. Pharmacol. 47:131-9; Gromada et al, (1995) FEBS Letts. 373:182-6; Querfurth et al, (1998) Biochem J. 334:79-86), and thus complicate the interpretation of the data. Therefore, intracellular stores of Ca^2+ were depleted to reduce the contribution of intracellular Ca^2+ pools to the intracellular free Ca^2+ signal. […] Two different Ca^2+ depletion protocols were used (Antoni et al, (1998) supra). […] The total cAMP content of the cells and the medium was determined after freeze-thawing and acetylation by radioimmunoassay (Antoni et al, (1995) J. Biol. Chem. 270:28055-61).
# [5] = system: HEK293 cells transfected with AC; assay: cAMP in HEK293 cells transiently transfected with AC; format: cell-based, human; details: L-685,818 100 μmol/l
# calcineurin [6] = assay: calcineurin activity in AtT20 cells (phosphocasein method); format: biochemical, mouse; details: 1 μmol/l FK506, phosphocasein
# AtT20 cells [7] = assay: ACTH release by AtT20 cells; format: cell-based, mouse
# Chain of FKBP-12 (P62942 whole entry, species assumed): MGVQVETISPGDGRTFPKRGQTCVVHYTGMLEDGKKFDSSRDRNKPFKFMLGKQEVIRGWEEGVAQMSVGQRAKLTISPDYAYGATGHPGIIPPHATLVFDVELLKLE
compound,measurement,setting,value
"CC[C@@H]1/C=C(\C)[C@@H](O)[C@H](C)C[C@H](OC)[C@H]2O[C@@](O)(C(=O)C(=O)N3CCCC[C@H]3C(=O)O[C@H](/C(C)=C/[C@@H]3CC[C@@H](O)[C@H](OC)C3)[C@H](C)[C@@H](O)CC1=O)[C@H](C)C[C@@H]2OC [L685,818]",FKBP-12 prolyl isomerase activity,FKBP-12,potent inhibitor
same,blockade of calcineurin,calcineurin [1],does not block calcineurin
same,blockade of calcineurin,"calcineurin [1]; listed as L-685,818",do not inhibit calcineurin
same,blockade of the FK506 effect on CRF-induced cAMP production,[2],blocked
same,cAMP levels in sham-transfected or pcDNA3-transfected cells,HEK293 cells,no effect in sham-transfected or pcDNA3-transfected cells
same,"cAMP formation, compound given alone",AtT20 cells [3],no discernible effect
same,antagonism of the effect of FK506 on CRF-induced cAMP production,AtT20 cells [3]; 10 nmol/l CRF,antagonized
same,cAMP production in hAC9 expressing cells,[4],had no effect on cAMP production
same,inhibitory effect of Ca2+ on cAMP production,"[4]; FK506, cyclosporin A, rapamycin 10 μM, L685,818 50 μM, PDE blockers present",failed to block the inhibitory action of Ca^2+ on cAMP production
same,cAMP response to CRF,[5]; FK506 2 μmol/l,no significant effect on CRF-induced cAMP production; also recorded: no effect on CRF-induced cAMP formation when given alone
same,blockade of the enhancement of the CRF-induced cAMP response by FK506,[5]; 1 nmol/l CRF,blocked the enhancement of the response to 1 nmol/l CRF by FK506
same,effect on the inhibition of calcineurin activity by FK506,calcineurin [6],blocked the inhibitory effect of FK506 on calcineurin-mediated dephosphorylation of phosphocasein
same,"ACTH secretion, compound given alone",AtT20 cells [7],no discernible effect; also recorded: no effect on basal ACTH secretion
same,antagonism of the effect of FK506 on CRF-induced ACTH release,AtT20 cells [7]; FK506 0.5 μmol/l,prevented
